Laboratory results published in patent US20020041889A1, “ENHANCING AGENT FOR DEGRADATION OF DESMOSOMES OR STRATUM CORNEUM DESQUAMATION” (priority 1997, published 2002).

Tested on: desmoglein in a stratum corneum sheet (decomposition by trypsin-like and chymotrypsin-like enzymes)
Experiment: Percentage of residual desmoglein in stratum corneum sheets (SDS-PAGE / immunoblot with anti-desmoglein antibody)
Format: biochemical, human
Conditions: stratum corneum sheet (2 mg) from healthy subjects coated with 5 μl of a 5% aqueous solution of test compound; moisture content not greater than 30%; 37° C. for one week; average of three measurements; control = 100.00
Description: Method of Evaluation (the percentage of residual desmoglein in stratum corneum sheets) This method of evaluation serves to evaluate the degree of decomposition of desmoglein in a stratum corneum sheet by trypsin-like and chymotrypsin-like enzymes, i.e., the degree of stratum corneum desquamation. […] Stratum corneum sheets were peeled from healthy subjects and soaked in an antiseptic and fungicidal solution (containing 60 μl/ml of kanamycin and 0.5% NaN3) for 30 seconds. Both sides of a stratum corneum sheet weighing 2 mg were coated with 5 μl of a 5% aqueous solution containing each of the test compounds shown in Table I below. A stratum corneum sheet coated with an aqueous solution containing no test compound was regarded as a control. These stratum corneum sheets were subjected to the following procedure. The stratum corneum sheets prepared in the above-described manner were placed under such conditions that the stratum corneum would have a moisture content of not greater than 30% at which the degradation of desmosomes was insufficient, and allowed to stand at 37° C. for one week. Thereafter, using 0.5 ml of a 0.1 M Tris buffer (pH 9) containing 9 M urea, 2% SDS and 1% mercaptoethanol, each of the stratum corneum sheets was extracted at 37° C. for 15 hours. Then, 0.7 ml of a sample buffer for SDS-PAGE (a two-fold concentrated Laemmli solution) was added to the resulting extract and heated for 15 minutes. 10 μl of this solution was taken and subjected to electrophoresis in a gel having a concentration of 7.5%. After electrophoresis, the proteins were transferred to a PVDF membrane and immunologically stained with an anti-desmoglein antibody and alkaline phosphatase-labelled secondary (anti-mouse lg) antibody. Then, the labelled protein was visualized with NBT/BCIP substrate. Thus, the amount of the desired protein was determined. Then, the above evaluation process was repeated except that the above-mentioned 5% aqueous solution of each of the test compounds was replaced with an aqueous solution which had been adjusted to contain 0.1% of L-alanine and 2.9% of N,N,N-trimethylglycine.

Row | Percentage of residual desmoglein [%] | Structure (SMILES)
1 | 84.13 | NCC(=O)O [Glycine]
2 | 54.55 | CC(N)C(=O)O (racemic) [DL-Alanine]
3 | 86.08 | C[N+](C)(C)CC(=O)[O-] [N,N,N-Trimethylglycine]
4 | 90.91 | C[C@@H](O)[C@H](N)C(=O)O [L-Threonine]
5 | 58.41 | N[C@@H](CO)C(=O)O [L-Serine]
6 | 69.44 | NC(CO)C(=O)O (racemic) [DL-Serine]
7 | 97.50 | C[C@@H](O)[C@H](N)C(=O)O (racemic) [DL-Threonine]

Row | Structure (SMILES) | Percentage of residual desmoglein [%]
8 | CCCCCCCCCCCC(=O)NCC(=O)[O-].[K+] [N-Dodecanoylglycine potassium salt] | 78.58
9 | O=C(O)[C@@H]1CC(O)CN1 (stereo partly drawn) [4-Hydroxy-L-proline] | 83.04
